Measured values: article PMC12015242, “A universal cannabinoid CB1 and CB2 receptor TR-FRET kinetic ligand-binding assay” (Frontiers in Pharmacology, 2025)
Where two headings read alike, the source gives them in different places.

Columns and labels:
human CB2R (SNAP-CB2) [1] = biological target: T1, human CB2R (SNAP-CB2) (Homo sapiens, UniProt P34972); format: binding
T1 construct: truncated CB1R (CB1R91-472) and full-length CB2R (CB2R1–360); 5HT3A signal peptide (N, cleaved yes); expressed in transfected cells; membranes

human CB2R (SNAP-CB2) [2] = biological target: T1, human CB2R (SNAP-CB2); format: binding; conditions: 37°C, D77 900 nM, 15-min incubation
truncated CB1R91-472 = biological target: T2, truncated CB1R91-472 (Homo sapiens, UniProt P21554); format: cell-based
T2 construct: 5HT3A signal peptide (N, cleaved yes); expressed in transfected cells; host or cells: T-REx-293 cells, tetracycline-induced, co-expressing the Gi-CASE biosensor

[3] = biological target: T3, human CB1R (SNAP-CB1R91–472) (Homo sapiens, UniProt P21554); assay: biochemical; format: binding
T3 construct: SNAP-tagged human CB1R or CB2R (SNAP-CB1R91–472 and SNAP-CB2); 5HT3A signal peptide (N, cleaved yes); expressed in transfected cells; membranes

full length CB1R WT = biological target: T4, full length CB1R WT (Homo sapiens, UniProt P21554); format: cell-based
T4 construct: 5HT3A signal peptide (N, cleaved yes); expressed in transfected cells; host or cells: T-REx-293 cells, tetracycline-induced, co-expressing the Gi-CASE biosensor

[4] = biological target: T3, human CB1R (SNAP-CB1R91–472); assay: biochemical; format: binding; remark: listed apart in the source
[5] = biological target: T3, human CB1R (SNAP-CB1R91–472); assay: Fluorescent ligand kinetic association binding, TR-FRET; conditions: 25°C; for time required for equilibrium: 15 min data collection period
Procedure: (§1) Experiments were performed using T-REx™-293 cell membranes expressing SNAP-tagged human CB1R or CB2R (SNAP-CB1R91–472 and SNAP-CB2). All the assays were conducted at either 25°C or 37°C in white 384-well OptiPlate plates (PerkinElmer) using the PHERAstar FSX microplate reader (BMG Labtech). The TRF 337/620/520 optic module was used for all assays, except for tracer MKA-136, where the TRF 337/570/490 module was utilized. Each well was excited with four laser flashes, and signal detection was performed with a 100-μs delay, integrating the signal over 700 μs.
(§2) Assay buffer comprised HBSS (Hanks’ Balanced Salt Solution) containing 5 mM HEPES, 0.5% BSA, and 0.02% Pluronic F-127 at pH 7.4. BSA (0.5%) and 0.02% Pluronic F-127 were used to minimize the non-specific binding of hydrophobic compounds to plasticware. Membranes were preincubated with 100 μM of GppNHp at 25 or 37°C for 15 min prior to addition to the plate using automatic injectors to ensure early time points could be measured with accuracy. GppNHp is a non-hydrolyzable GTP analog that will bind to G proteins and promote the dissociation of G proteins from the receptor. This way, we promote a single population of receptors (uncoupled from G proteins) avoiding a mixed population (i.e., uncoupled receptors (R) and receptors coupled to GDP bound G proteins, or G proteins alone (RG)). Adding GTP analogs is a common strategy used in GPCR binding studies to ensure a homogeneous single-state receptor population and simplify the analysis.
(§3) To control for potential plate position effects, plate layouts were varied between independent experiments. […] D77 stock was prepared at 100x the final concentration, and 0.4 μL was added to the wells. DMSO was held constant at 2% for all assay points, including the saturation and competition binding experiments, as reflected in the text.
(§4) Fluorescent ligand binding to CB1R and CB2R was assessed via HTRF detection, allowing the construction of association binding curves. For fluorescent ligand characterization, six increasing concentrations of fluorescent ligands were prepared, and cell membranes containing human CB1R or CB2R (1 μg/well) were added (at t = 0) in a total volume of 40 μL containing 2% DMSO at 25 or 37°C, with gentle agitation. […] As the wells are read sequentially, we restricted the readout of kinetic data of two ligands per experimental run to reduce the minimum reading cycle time.
(§5) D77 association data were fitted to a global fitting model using GraphPad Prism 9.2 to simultaneously calculate k on and k off using the following equation, where k obs equals the observed rate of association and L is the concentration of D77: kobs=L⋅kon+koff (3)

human CB2R (SNAP-CB2) [6] = biological target: T1, human CB2R (SNAP-CB2); assay: as above; conditions: 25°C; for time required for equilibrium: 15 min data collection period
Procedure: as §1, §2, §3, §4, §5

CB2R = conditions: 25°C, radioligand kinetic binding assay, ref Martella et al., 2017; cited from earlier work

T1 sequence (P34972 whole entry, the tested form may be a part): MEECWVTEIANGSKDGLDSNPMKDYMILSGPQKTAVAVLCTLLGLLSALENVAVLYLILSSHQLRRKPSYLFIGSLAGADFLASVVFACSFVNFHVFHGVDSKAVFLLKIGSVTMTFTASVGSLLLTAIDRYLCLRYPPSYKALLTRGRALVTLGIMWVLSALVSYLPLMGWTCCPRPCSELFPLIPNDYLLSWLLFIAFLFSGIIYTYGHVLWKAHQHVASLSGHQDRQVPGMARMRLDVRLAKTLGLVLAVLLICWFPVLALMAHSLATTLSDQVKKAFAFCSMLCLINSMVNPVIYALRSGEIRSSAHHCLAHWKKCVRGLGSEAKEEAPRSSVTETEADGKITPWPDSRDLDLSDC
T3 sequence (P21554 91-472): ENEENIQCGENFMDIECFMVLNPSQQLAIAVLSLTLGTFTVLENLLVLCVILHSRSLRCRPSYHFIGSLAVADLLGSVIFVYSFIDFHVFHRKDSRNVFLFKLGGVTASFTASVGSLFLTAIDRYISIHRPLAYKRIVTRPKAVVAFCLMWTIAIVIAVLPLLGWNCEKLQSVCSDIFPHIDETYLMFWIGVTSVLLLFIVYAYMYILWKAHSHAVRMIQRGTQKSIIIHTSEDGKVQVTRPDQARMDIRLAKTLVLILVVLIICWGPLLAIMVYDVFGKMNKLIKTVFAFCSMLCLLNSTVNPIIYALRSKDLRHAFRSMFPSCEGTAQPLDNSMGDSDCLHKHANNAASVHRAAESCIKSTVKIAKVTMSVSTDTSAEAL
T4 sequence (P21554 whole entry): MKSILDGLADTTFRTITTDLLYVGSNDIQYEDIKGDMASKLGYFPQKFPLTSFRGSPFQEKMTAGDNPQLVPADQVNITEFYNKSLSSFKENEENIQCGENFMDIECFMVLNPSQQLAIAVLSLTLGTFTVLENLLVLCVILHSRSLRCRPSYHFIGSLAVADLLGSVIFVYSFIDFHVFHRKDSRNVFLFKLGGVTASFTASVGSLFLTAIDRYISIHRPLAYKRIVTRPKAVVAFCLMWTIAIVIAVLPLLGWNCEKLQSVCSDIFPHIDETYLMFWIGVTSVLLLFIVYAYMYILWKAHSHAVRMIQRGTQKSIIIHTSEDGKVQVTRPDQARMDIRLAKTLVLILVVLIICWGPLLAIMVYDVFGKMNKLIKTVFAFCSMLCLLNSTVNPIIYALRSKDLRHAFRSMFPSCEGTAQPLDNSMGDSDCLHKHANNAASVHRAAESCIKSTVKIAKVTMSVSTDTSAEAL
T2 sequence (P21554 91-472): as the sequence (P21554 91-472) above

With `CCCCC/C=C\C/C=C\C/C=C\C/C=C\CCCC(=O)OC(CO)CO` [2-AG] the “pKd (kinetic)” value (human CB2R (SNAP-CB2) [1]; 25°C) was 6.36 ± 0.06, the “pK d (kinetic)” value (human CB2R (SNAP-CB2) [1]; 37°C) was 5.92 ± 0.04 and the pK i (human CB2R (SNAP-CB2) [2]) was 5.81 ± 0.03.

For `CCCCCCC(C)(C)c1cc(O)c2c(c1)OC(C)(C)[C@@H]1CC=C(CO)C[C@@H]21` [HU-210], the “Emax (%)” value (truncated CB1R91-472) was 104.1 ± 4.7%, the pEC50 (truncated CB1R91-472) was 9.15 ± 0.09 and the pK i [3] was 7.99 ± 0.01. The “Emax (%)” value (full length CB1R WT) was 98.2 ± 6.8%, the pEC50 (full length CB1R WT) was 8.97 ± 0.08 and the “pK d (kinetic)” value [4] was 8.65 ± 0.01. The “pKd (kinetic)” value [4] was 8.64 ± 0.02.

In the case of `CCCCCCC(C)(C)c1cc(OC)c([C@@H]2C=C(CO)[C@@H]3C[C@H]2C3(C)C)c(OC)c1` [HU-308], the Ki [3] is reported as 3.89 µM, the Kd ([4]; pK d (kinetic)) is reported as 4.47 µM and the Kd ([4]; pKd (kinetic)) is reported as 4.27 µM.

With `CCCCCCC(C)(C)c1cc(OC)c(C2C=C(CNC(=O)CCCCCCNc3ccc([N+](=O)[O-])c4nonc34)C3CC2C3(C)C)c(OC)c1` (stereo not shown) [MKA-115] the “time required for equilibrium” value [5] was greater than 15 min and the “time required for equilibrium” value (human CB2R (SNAP-CB2) [6]) was greater than 15 min.

In the case of `CCCCCc1cc(O)c2c(c1)OC(C)(C)[C@@H]1CC=C(CNC(=O)CCCCCCNc3ccc([N+](=O)[O-])c4nonc34)C[C@@H]21` [MKA-136], the “time required for equilibrium” value [5] is reported as greater than 15 min, the “koff of fluorescent tracer” value (human CB2R (SNAP-CB2) [6]) is reported as 0.0035 ± 0.0012 s⁻¹ and the “pKd of fluorescent tracer” value (human CB2R (SNAP-CB2) [6]) is reported as 6.71 ± 0.41. For the same molecule, the “time required for equilibrium” value (human CB2R (SNAP-CB2) [6]) was greater than 15 min.

In the case of `CCCCCc1cc(O)c2c(c1)OC(C)(C)[C@@H]1CC=C(CNC(=O)CCCCC[n+]3cc(S(=O)(=O)[O-])ccc3/C=C/c3cc4ccc(N(CC)CC)cc4oc3=O)C[C@@H]21` [MKA-138], the “koff of fluorescent tracer” value [5] is reported as 0.15 ± 0.03 s⁻¹, the “pKd of fluorescent tracer” value [5] is reported as 6.31 ± 0.05 and the “koff of fluorescent tracer” value (human CB2R (SNAP-CB2) [6]) is reported as 0.0153 ± 0.0015 s⁻¹. The “pKd of fluorescent tracer” value (human CB2R (SNAP-CB2) [6]) was 6.97 ± 0.08.

With `CCOC(=O)C(CC)(CCCSCCOCCNc1ccc([N+](=O)[O-])c2nonc12)NC(=O)c1ccc(C2CC2)c(Cc2ccc(F)cc2)n1` (stereo not shown) [NBD-690] the “koff of fluorescent tracer” value [5] was 0.128 ± 0.00733 s⁻¹, the “pKd of fluorescent tracer” value [5] was 6.13 ± 0.09 and the “koff of fluorescent tracer” value (human CB2R (SNAP-CB2) [6]) was 0.0162 ± 0.00083 s⁻¹. The “pKd of fluorescent tracer” value (human CB2R (SNAP-CB2) [6]) was 7.15 ± 0.02.

For `CCOC(=O)C(CC)(CCCSCCOCCOCCNc1ccc([N+](=O)[O-])c2nonc12)NC(=O)c1ccc(C2CC2)c(Cc2ccc(F)cc2)n1` (stereo not shown) [NBD-691], the “pKd of fluorescent tracer” value [5] was 6.04 ± 0.01, the “koff of fluorescent tracer” value (human CB2R (SNAP-CB2) [6]) was 0.0208 ± 0.001 s⁻¹ and the “pKd of fluorescent tracer” value (human CB2R (SNAP-CB2) [6]) was 7.20 ± 0.01.

With `CCOC(=O)C(CC)(CCCSCCOCCOCCOCCNc1ccc([N+](=O)[O-])c2nonc12)NC(=O)c1ccc(C2CC2)c(Cc2ccc(F)cc2)n1` (stereo not shown) [NBD-694] the “pKd of fluorescent tracer” value [5] was 6.02 ± 0.01, the “koff of fluorescent tracer” value (human CB2R (SNAP-CB2) [6]) was 0.039 ± 0.00367 s⁻¹ and the “pKd of fluorescent tracer” value (human CB2R (SNAP-CB2) [6]) was 6.97 ± 0.01.

For `CCOC(=O)C(CC)(CCCSCCOCCOCCOCCOCCNc1ccc([N+](=O)[O-])c2nonc12)NC(=O)c1ccc(C2CC2)c(Cc2ccc(F)cc2)n1` (stereo not shown) [NBD-698], the “koff of fluorescent tracer” value [5] was 0.166 ± 0.004 s⁻¹, the “pKd of fluorescent tracer” value [5] was 6.22 ± 0.01 and the “koff of fluorescent tracer” value (human CB2R (SNAP-CB2) [6]) was 0.0475 ± 0.00667 s⁻¹. For the same molecule, the “pKd of fluorescent tracer” value (human CB2R (SNAP-CB2) [6]) was 6.93 ± 0.05.

With SR 144528 the “Residence time (Rt) (s)” value (human CB2R (SNAP-CB2) [1]; 25°C) was 379 ± 27 s, the koff (human CB2R (SNAP-CB2) [1]; 25°C) was 0.00267 ± 0.00017 s⁻¹ and the “Residence time (Rt) (min)” value (human CB2R (SNAP-CB2) [1]; 25°C, listed as SR 144,528) was 6.3 min. For the same molecule, the “Residence time (Rt) (min)” value (human CB2R (SNAP-CB2) [1]; 25°C, listed as SR-144528) was 6.32 ± 0.45 min, the k off (human CB2R (SNAP-CB2) [1]; 37°C) was 0.0115 ± 0.0005 s⁻¹ and the k on (human CB2R (SNAP-CB2) [1]; 37°C) was “(2.47 ± 0.16) × 10^8 M^−1 min^−1”. The “k on (text, shared exponent)” value (human CB2R (SNAP-CB2) [1]; 37°C) was 4.17e+06 M⁻¹ s⁻¹, the “Residence time (Rt) (min)” value (human CB2R (SNAP-CB2) [1]; 37°C, Rt = 1/k off) was 1.46 ± 0.07 min and the “Residence time (Rt) (s)” value (human CB2R (SNAP-CB2) [1]; 37°C, Rt = 1/k off) was 87 ± 4 s. The residence time (CB2R) was 8.7 min, the k off [4] was 0.0832 ± 0.0122 s⁻¹ and the koff [4] was 0.0387 ± 0.00333 s⁻¹.
